Laboratory results published in ChEMBL document CHEMBL4229572, “VU6007477, a Novel M1 PAM Based on a Pyrrolo[2,3-b]pyridine Carboxamide Core Devoid of Cholinergic Adverse Events” (ACS Med Chem Lett, 2018).
Numbering of substitutions follows the chain as printed. The source made the active and inactive calls. The calls are words filed in the database; no cut-off is given here.

Tests used:
[1] = biological target: T1, Muscarinic acetylcholine receptor M1 (Rattus norvegicus) (UniProt P08482); assay: (§1) Agonist activity at rat M1 receptor expressed in CHO cells assessed as increase in calcium mobilization measured after 2.5 mins by Fluo-4-AM dye based assay; format: functional, cell-based
T1 sequence (whole entry): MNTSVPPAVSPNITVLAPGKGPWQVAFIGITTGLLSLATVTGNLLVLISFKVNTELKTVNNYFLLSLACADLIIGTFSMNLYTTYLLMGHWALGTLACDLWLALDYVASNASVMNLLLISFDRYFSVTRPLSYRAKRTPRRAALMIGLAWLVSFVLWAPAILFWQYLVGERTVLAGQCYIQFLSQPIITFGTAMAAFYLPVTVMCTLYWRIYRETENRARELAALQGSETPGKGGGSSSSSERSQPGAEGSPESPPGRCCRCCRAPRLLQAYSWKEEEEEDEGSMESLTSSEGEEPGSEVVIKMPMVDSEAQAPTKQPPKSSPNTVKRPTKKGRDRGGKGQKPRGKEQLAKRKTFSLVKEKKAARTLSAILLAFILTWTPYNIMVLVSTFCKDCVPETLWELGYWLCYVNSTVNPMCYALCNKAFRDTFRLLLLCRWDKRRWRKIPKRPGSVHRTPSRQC

[2] = biological target: T2, Muscarinic acetylcholine receptor M1 (Rattus norvegicus, UniProt P08482); assay: as §1; format: functional, cell-based
T2 sequence (P08482 whole entry): T1 sequence (whole entry)

[3] = biological target: T3, Muscarinic acetylcholine receptor M1 (Homo sapiens, UniProt P11229); assay: (§2) Positive allosteric modulation of human M1 receptor expressed in CHO cells assessed as increase in acetylcholine-induced calcium mobilization pretreated for 2.5 mins followed by acetylcholine addition and measured after 1 min by Fluo-4-AM dye based assay; format: functional, cell-based
T3 sequence (P11229 whole entry): T1 sequence (whole entry) with V5A, S254T, S309P, K320R, G337A, V413I

[4] = biological target: T4, Muscarinic acetylcholine receptor M1 (Homo sapiens) (UniProt P11229); assay: as §2; format: functional, cell-based
T4 sequence (whole entry): T1 sequence (whole entry) with V5A, S254T, S309P, K320R, G337A, V413I

[5] = biological target: T3, Muscarinic acetylcholine receptor M1; assay: Agonist activity at human M1 receptor expressed in CHO cells assessed as increase in calcium mobilization measured after 2.5 mins by Fluo-4-AM dye based assay; format: functional, cell-based
[6] = biological target: T1, Muscarinic acetylcholine receptor M1 (Rattus norvegicus); assay: (§3) Positive allosteric modulation of rat M1 receptor expressed in CHO cells assessed as increase in acetylcholine-induced calcium mobilization pretreated for 2.5 mins followed by acetylcholine addition and measured after 1 min by Fluo-4-AM dye based assay; format: functional, cell-based
[7] = biological target: T2, Muscarinic acetylcholine receptor M1; assay: as §3; format: functional, cell-based
[8] = Ratio of unbound brain to plasma concentration in cannulated Sprague-Dawley rat at 0.2 mg/kg, iv administered via jugular vein as cassette dose measured after 0.25 hrs by LC-MS/MS analysis; format: ADME, organism-based; details: for K(p,uu,brain): 0.25 h, BLD = below limit of detection; for Kp uu at 0.25 h: Sprague-Dawley, brain and plasma, read-out: K(p,uu,brain)
[9] = Protein binding in human plasma assessed as unbound fraction at 5 uL measured after 4 hrs by LC-MS/MS based equilibrium dialysis method; format: ADME, cell-free
[10] = Protein binding in rat brain assessed as unbound fraction; format: ADME, tissue-based
[11] = Protein binding in rat plasma assessed as unbound fraction at 5 uL measured after 4 hrs by LC-MS/MS based equilibrium dialysis method; format: ADME, cell-free
[12] = Total brain to plasma partition coefficient, Kp in C57BL/6J mouse at 100 mg/kg, ip after 1 hr by LC-MS/MS analysis; format: ADME, organism-based; details: brain and plasma
[13] = Total brain to plasma partition coefficient, Kp in cannulated Sprague-Dawley rat at 0.2 mg/kg, iv administered via jugular vein as cassette dose measured after 0.25 hrs by LC-MS/MS analysis; format: ADME, organism-based; details: for Kp: brain, 0.25 h, BLD = below limit of detection; for Kp at 0.25 h: Sprague-Dawley, brain and plasma
Mus musculus = assay: Cholinergic toxicity in C57BL/6J mouse assessed as induction of seizure activity at 100 mg/kg, ip measured within 30 mins; format: organism-based; details: in vivo, 0.5 h
[14] = Ratio of unbound brain to plasma concentration in C57BL/6J mouse at 100 mg/kg, ip after 1 hr by LC-MS/MS analysis; format: ADME, organism-based; details: brain and plasma, read-out: K(p,uu,brain)

Compound	%max [1]	EC50 ([2]; read-out: EC50)	%max [6]	EC50 ([7]; read-out: EC50)	EC50 ([2]; read-out: pEC50 (converted))	also measured
Cc1nc(-c2ccc(Cc3cc(C(=O)NC4CCOCC4)nc4c3ccn4C)cc2)co1			88%	760 nM	> 10000 nM	EC50 ([2]; cho, read-out: EC50): > 10000 nM
O=C(N[C@H]1CCCC[C@@H]1O)C1CN(Cc2ccc(-n3cccn3)cc2)c2ccccc2O1 (some centres undefined)						Activity [6]: inactive
Cn1cc(-c2ccc(Cn3cc(C(=O)N[C@H]4CCCC[C@@H]4O)c4c(F)cc(F)cc43)cn2)cn1						Activity [6]: inactive
Cn1ccc(-c2ccc(Cc3cc(C(=O)NC4CCOC(C)(C)C4)nc4c3ccn4C)cn2)n1 (centres undefined)			94%	550 nM	> 10000 nM	EC50 ([2]; cho, read-out: EC50): > 10000 nM
Cn1ccc(-c2ccc(Cc3cc(C(=O)NC4CC5(COC5)C4)nc4c3ccn4C)cn2)n1		> 30000 nM	89%	570 nM	> 31600 nM	
Cn1ccc2c(Cc3ccc(-n4cccn4)cc3)cc(C(=O)NC3CCOCC3)nc21	26%		87%	490 nM	> 10000 nM	EC50 ([2]; cho, read-out: EC50): > 10000 nM
Cn1ccc(-c2ccc(Cc3cc(C(=O)NCC4CCOCC4)nc4c3ccn4C)cn2)n1		> 30000 nM	87%	1580 nM	> 31600 nM	
Cn1ccc2c(Cc3ccc(-c4nccs4)cc3)cc(C(=O)NC3CCOCC3)nc21		> 30000 nM	78%	1740 nM	> 31600 nM	
Cn1ccc2c(Cc3ccc(-c4cscn4)cc3)cc(C(=O)NC3CCOCC3)nc21		> 30000 nM	86%	760 nM	> 31600 nM	
Cn1ccc(-c2ccc(Cc3cc(C(=O)NC[C@@H]4CCCO4)nc4c3ccn4C)cn2)n1			84%	490 nM	> 10000 nM	EC50 ([2]; cho, read-out: EC50): > 10000 nM
Cn1ccc(-c2ccc(Cc3cc(C(=O)NC4CC5(COC5)C4)nc4c3ccn4C)cc2)n1		> 10000 nM	91%	604 nM		
Cn1ccc(-c2ccc(Cc3cc(C(=O)NC4CCOCC4)nc4c3ccn4C)cc2)n1		> 10000 nM	89%	560 nM		K(p,uu,brain) [8]: Bld; fraction unbound at 4 h, 5 uL [9]: 0.02; fraction unbound [10]: 0.01; EC50 [3]: 660 nM; %max [4]: 87%; fraction unbound at 4 h, 5 uL [11]: 0.04; Kp [13]: Bld; EC50 [5]: 661 nM
Cn1ccc2c(Cc3ccc(-c4nccs4)cc3)cc(C(=O)N[C@@H]3CCCC[C@H]3O)nc21		> 30000 nM	91%	360 nM	> 31600 nM	
Cn1ccc(-c2ccc(Cc3cc(C(=O)NC4CCOCC4)nc4c3ccn4C)cn2)n1	34%		90%	760 nM	> 10000 nM	EC50 ([2]; cho, read-out: EC50): > 10000 nM

Further lines, with some results ahead:

%max [1]	EC50 ([2]; read-out: EC50)	%max [6]	EC50 ([7]; read-out: EC50)	EC50 ([2]; read-out: pEC50 (converted))	Compound	also measured
41%	3240 nM	87%	180 nM		Cn1ccc(-c2ccc(Cc3cc(C(=O)N[C@@H]4CCCC[C@H]4O)nc4c3ccn4C)cc2)n1	EC50 [3]: 180 nM; %max [4]: 84%; EC50 [5]: 182 nM
58%	1210 nM	89%	40 nM		Cn1cc(-c2ccc(Cc3cc(C(=O)N[C@@H]4CCCC[C@H]4O)nc4c3ccn4C)cn2)cn1	K(p,uu,brain) [8]: Bld; fraction unbound at 4 h, 5 uL [9]: 0.04; fraction unbound [10]: 0.07; fraction unbound at 4 h, 5 uL [11]: 0.06; Kp at 1 h [12]: 0.03; Kp [13]: Bld; Activity (Mus musculus): Toxic; Kp uu at 1 h [14]: 0.04
67%	575 nM	86%	14 nM		Cn1ccc(-c2ccc(Cc3cc(C(=O)N[C@@H]4CCOC[C@H]4O)nc4c3ccn4C)cn2)n1	
53%	2290 nM	87%	90 to 100 nM		Cn1ccc(-c2ccc(Cc3cc(C(=O)N[C@@H]4CCCC[C@H]4O)nc4c3ccn4C)cn2)n1	K(p,uu,brain) [8]: Bld; fraction unbound at 4 h, 5 uL [9]: 0.12; fraction unbound [10]: 0.04; EC50 [3]: 120 nM; %max [4]: 79%; fraction unbound at 4 h, 5 uL [11]: 0.03; Kp at 1 h [12]: 0.28; Kp [13]: Bld; EC50 [5]: 123 nM; Activity (Mus musculus): Toxic; EC50 ([7]; read-out: pEC50 (converted)): 95.5 nM; Kp uu at 1 h [14]: 0.17
41%	5620 nM	90%	100 nM		Cn1ccc2c(Cc3ccc(-c4nccs4)cc3)cc(C(=O)N[C@@H]3CCOC[C@H]3O)nc21	Kp uu at 0.25 h [8]: 0.13; fraction unbound at 4 h, 5 uL [9]: 0.02; fraction unbound [10]: 0.01; EC50 [3]: 90 nM; %max [4]: 80%; fraction unbound at 4 h, 5 uL [11]: 0.02; Kp at 0.25 h [13]: 0.21; EC50 [5]: 89.1 nM; Activity (Mus musculus): Toxic
		86%	260 nM	> 10000 nM	Cn1ccc(-c2ccc(Cc3cc(C(=O)N[C@@H]4CCC[C@H]4O)nc4c3ccn4C)cn2)n1	EC50 ([2]; cho, read-out: EC50): > 10000 nM
65%	2240 nM	87%	40 nM		Cn1ccc(-c2ccc(Cc3cc(C(=O)N[C@@H]4CCOC[C@H]4O)nc4c3ccn4C)cc2)n1	Kp uu at 0.25 h [8]: 0.05; fraction unbound at 4 h, 5 uL [9]: 0.02; fraction unbound [10]: 0.01; EC50 [3]: 60 nM; %max [4]: 83%; fraction unbound at 4 h, 5 uL [11]: 0.03; Kp at 1 h [12]: 0.09; Kp at 0.25 h [13]: 0.11; EC50 [5]: 60.3 nM; Activity (Mus musculus): Toxic; Kp uu at 1 h [14]: 0.04
